System: 362531-283-R-J2-PDC complex spheroid viability
Assay: Anticancer human tumor 362531-283-R-J2-PDC patient-derived colon adenocarcinoma cell line growth inhibition [RAS]
Conditions: for viability, T/C: stronger effect = lower value; active = viability on the fitted dose curve at most 10% of control; inactive = the rest
Procedure, shortened: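 Agents were tested in combination matrices in half-log decrements from a top concentration at or near clinical Cmax (10 microM if undetermined). Targets were multi-cell spheroids of tumour lines plus HUVEC and MSC stromal cells.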

[1] = curve of first compound, second compound 0.0316 µM
[2] = curve of first compound, second compound 0.1 µM
[3] = curve of first compound, second compound 0.316 µM
[4] = curve of first compound, second compound 1 µM
[5] = second compound 0.0316 µM, first compound 0.0316 µM
[6] = second compound 0.0316 µM, first compound 0.1 µM
[7] = second compound 0.0316 µM, first compound 0.316 µM
[8] = second compound 0.0316 µM, first compound 1 µM
[9] = second compound 0.1 µM, first compound 0.0316 µM
[10] = second compound 0.1 µM, first compound 0.1 µM
[11] = second compound 0.1 µM, first compound 0.316 µM
[12] = second compound 0.1 µM, first compound 1 µM
[13] = second compound 0.316 µM, first compound 0.0316 µM
[14] = second compound 0.316 µM, first compound 0.1 µM
[15] = second compound 0.316 µM, first compound 0.316 µM
[16] = second compound 0.316 µM, first compound 1 µM
[17] = second compound 1 µM, first compound 0.0316 µM
[18] = second compound 1 µM, first compound 0.1 µM
[19] = second compound 1 µM, first compound 0.316 µM
[20] = second compound 1 µM, first compound 1 µM
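Also: spheroids exposed to the agents for 7 days before readout.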
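For viability, T/C in this document: luminescence viability as percent of DMSO vehicle control wells.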

CC1(C)CCC(Nc2ncc(C(F)(F)F)c(-c3c[nH]c4c(P(C)(C)=O)c(C#N)ccc34)n2)CN1 (stereo not drawn)
inactive: viability, T/C (compound 0.000949 µM) 104% [middle of 4 runs] | viability, T/C (compound 0.003 µM) 98.7% [middle of 4 runs] | viability, T/C (compound 0.00949 µM) 107% [middle of 4 runs] | viability, T/C (compound 0.03 µM) 101% [middle of 4 runs] | viability, T/C (compound 0.0949 µM) 104% [middle of 4 runs] | viability, T/C (compound 0.3 µM) 108% [middle of 4 runs]
> 300 nM: IC50 (curve of compound)

O=C(c1ccc(F)c(F)c1Nc1ccc(I)cc1F)N1CC(O)([C@@H]2CCCCN2)C1 + CCn1c(-c2cc(N3CCN(C)CC3)cnc2C(C)OC)c2c3cc(ccc31)-c1csc(n1)CC(NC(=O)C1CC1C)C(=O)N1CCCC(N1)C(=O)OCC(C)(C)C2
447 nM: IC50 (curve of first compound, second compound 0.03 µM)
514 nM: IC50 (curve of first compound, second compound 0.003 µM)
active: viability, T/C (second compound 0.00949 µM, first compound 1 µM) 4.71% | viability, T/C (second compound 0.03 µM, first compound 1 µM) 5.79% | viability, T/C (second compound 0.0949 µM, first compound 1 µM) 3.06% | viability, T/C (second compound 0.3 µM, first compound 0.1 µM) 3.3% | viability, T/C (second compound 0.3 µM, first compound 0.316 µM) 3.48% | viability, T/C (second compound 0.3 µM, first compound 1 µM) 3.15%
< 3.16 nM: IC50 (curve of first compound, second compound 0.3 µM)
523 nM: IC50 (curve of first compound, second compound 0.000949 µM)
inactive: viability, T/C (second compound 0.000949 µM, first compound 0.00316 µM) 93% | viability, T/C (second compound 0.000949 µM, first compound 0.01 µM) 105% | viability, T/C (second compound 0.000949 µM, first compound 0.0316 µM) 85.6% | viability, T/C (second compound 0.000949 µM, first compound 0.1 µM) 80.9% | viability, T/C (second compound 0.000949 µM, first compound 0.316 µM) 74.8% | viability, T/C (second compound 0.000949 µM, first compound 1 µM) 23.1% | viability, T/C (second compound 0.003 µM, first compound 0.00316 µM) 87.8% | viability, T/C (second compound 0.003 µM, first compound 0.01 µM) 101% | viability, T/C (second compound 0.003 µM, first compound 0.0316 µM) 92% | viability, T/C (second compound 0.003 µM, first compound 0.1 µM) 76.4% | viability, T/C (second compound 0.003 µM, first compound 0.316 µM) 76% | viability, T/C (second compound 0.003 µM, first compound 1 µM) 20.3% | viability, T/C (second compound 0.00949 µM, first compound 0.00316 µM) 98.4% | viability, T/C (second compound 0.00949 µM, first compound 0.01 µM) 94.7% | viability, T/C (second compound 0.00949 µM, first compound 0.0316 µM) 81.4% | viability, T/C (second compound 0.00949 µM, first compound 0.1 µM) 82.6% | viability, T/C (second compound 0.00949 µM, first compound 0.316 µM) 73.6% | viability, T/C (second compound 0.03 µM, first compound 0.00316 µM) 87.4% | viability, T/C (second compound 0.03 µM, first compound 0.01 µM) 75.7% | viability, T/C (second compound 0.03 µM, first compound 0.0316 µM) 82% | viability, T/C (second compound 0.03 µM, first compound 0.1 µM) 75.4% | viability, T/C (second compound 0.03 µM, first compound 0.316 µM) 69.1% | viability, T/C (second compound 0.0949 µM, first compound 0.00316 µM) 72.8% | viability, T/C (second compound 0.0949 µM, first compound 0.01 µM) 96.2% | viability, T/C (second compound 0.0949 µM, first compound 0.0316 µM) 58.1% | viability, T/C (second compound 0.0949 µM, first compound 0.1 µM) 49.3% | viability, T/C (second compound 0.0949 µM, first compound 0.316 µM) 3.89% | viability, T/C (second compound 0.3 µM, first compound 0.00316 µM) 28.9% | viability, T/C (second compound 0.3 µM, first compound 0.01 µM) 28.4% | viability, T/C (second compound 0.3 µM, first compound 0.0316 µM) 15.1%
72 nM: IC50 (curve of first compound, second compound 0.0949 µM)
454 nM: IC50 (curve of first compound, second compound 0.00949 µM)

CC(C)NCC(C(=O)N1CCN(c2ncnc3c2C(C)CC3O)CC1)c1ccc(Cl)cc1 (stereo not drawn) + C#Cc1c(F)ccc2cc(O)cc(-c3ncc4c(N5CC6CCC(C5)N6)nc(OCC56CCCN5CC(F)C6)nc4c3F)c12
< 31.6 nM: IC50 (curve of first compound, second compound 10 µM)
inactive: viability, T/C [5] 98.4% | viability, T/C [6] 100% | viability, T/C [7] 89.4% | viability, T/C [8] 102% | viability, T/C (second compound 0.0316 µM, first compound 3.16 µM) 96.7% | viability, T/C (second compound 0.0316 µM, first compound 10 µM) 87.5% | viability, T/C [9] 84.4% | viability, T/C [10] 105% | viability, T/C [11] 94.9% | viability, T/C [12] 96.6% | viability, T/C (second compound 0.1 µM, first compound 3.16 µM) 102% | viability, T/C (second compound 0.1 µM, first compound 10 µM) 95% | viability, T/C [13] 94% | viability, T/C [14] 95.5% | viability, T/C [15] 92.6% | viability, T/C [16] 82.4% | viability, T/C (second compound 0.316 µM, first compound 3.16 µM) 83.7% | viability, T/C (second compound 0.316 µM, first compound 10 µM) 65.1% | viability, T/C [17] 79.9% | viability, T/C [18] 88.1% | viability, T/C [19] 78.3% | viability, T/C [20] 81% | viability, T/C (second compound 1 µM, first compound 3.16 µM) 81.1% | viability, T/C (second compound 1 µM, first compound 10 µM) 75.5% | viability, T/C (second compound 3.16 µM, first compound 0.0316 µM) 61.5% | viability, T/C (second compound 3.16 µM, first compound 0.1 µM) 73.6% | viability, T/C (second compound 3.16 µM, first compound 0.316 µM) 66.9% | viability, T/C (second compound 3.16 µM, first compound 1 µM) 87% | viability, T/C (second compound 3.16 µM, first compound 3.16 µM) 63% | viability, T/C (second compound 3.16 µM, first compound 10 µM) 53.2% | viability, T/C (second compound 10 µM, first compound 0.0316 µM) 43.3% | viability, T/C (second compound 10 µM, first compound 0.1 µM) 39.6% | viability, T/C (second compound 10 µM, first compound 0.316 µM) 43.9% | viability, T/C (second compound 10 µM, first compound 1 µM) 47% | viability, T/C (second compound 10 µM, first compound 3.16 µM) 50.6% | viability, T/C (second compound 10 µM, first compound 10 µM) 39.3%
> 10000 nM: IC50 [1] | IC50 [2] | IC50 [3] | IC50 [4] | IC50 (curve of first compound, second compound 3.16 µM)

CCN1CCN(Cc2ccc(Nc3ncc(F)c(-c4cc(F)c5nc(C)n(C(C)C)c5c4)n3)nc2)CC1 + C=CC(=O)N1CCN(c2nc(OCC3CCCN3C)nc3c(F)c(-c4nc(N)cc(C)c4C(F)(F)F)c(Cl)cc23)C(C)C1
> 1000 nM: IC50 (curve of first compound, second compound 0.00316 µM) | IC50 (curve of first compound, second compound 0.01 µM) | IC50 [1] | IC50 [2] | IC50 [3] | IC50 [4]
inactive: viability, T/C (second compound 0.00316 µM, first compound 0.00316 µM) 108% | viability, T/C (second compound 0.00316 µM, first compound 0.01 µM) 99.2% | viability, T/C (second compound 0.00316 µM, first compound 0.0316 µM) 106% | viability, T/C (second compound 0.00316 µM, first compound 0.1 µM) 76% | viability, T/C (second compound 0.00316 µM, first compound 0.316 µM) 66.9% | viability, T/C (second compound 0.00316 µM, first compound 1 µM) 80.2% | viability, T/C (second compound 0.01 µM, first compound 0.00316 µM) 93.5% | viability, T/C (second compound 0.01 µM, first compound 0.01 µM) 101% | viability, T/C (second compound 0.01 µM, first compound 0.0316 µM) 88.2% | viability, T/C (second compound 0.01 µM, first compound 0.1 µM) 78.3% | viability, T/C (second compound 0.01 µM, first compound 0.316 µM) 66.7% | viability, T/C (second compound 0.01 µM, first compound 1 µM) 71.4% | viability, T/C (second compound 0.0316 µM, first compound 0.00316 µM) 99.1% | viability, T/C (second compound 0.0316 µM, first compound 0.01 µM) 94.3% | viability, T/C [5] 96.7% | viability, T/C [6] 68.3% | viability, T/C [7] 66.9% | viability, T/C [8] 100% | viability, T/C (second compound 0.1 µM, first compound 0.00316 µM) 102% | viability, T/C (second compound 0.1 µM, first compound 0.01 µM) 108% | viability, T/C [9] 98.8% | viability, T/C [10] 70% | viability, T/C [11] 73.3% | viability, T/C [12] 82.5% | viability, T/C (second compound 0.316 µM, first compound 0.00316 µM) 114% | viability, T/C (second compound 0.316 µM, first compound 0.01 µM) 94.8% | viability, T/C [13] 101% | viability, T/C [14] 73% | viability, T/C [15] 77.9% | viability, T/C [16] 81.1% | viability, T/C (second compound 1 µM, first compound 0.00316 µM) 102% | viability, T/C (second compound 1 µM, first compound 0.01 µM) 108% | viability, T/C [17] 94.6% | viability, T/C [18] 70.8% | viability, T/C [19] 69.9% | viability, T/C [20] 72.9%

From PubChem BioAssay AID2060909 (Molecular Pharmacology Branch, DTP, NCI, 2025)
